Data as given in patent US8648011B2, “Herbicidal compositions” (Syngenta Crop Protection LLC, priority 2009, dated 2014).

System: maize
Assay: Glass house test of safening effect on herbicide A, post-emergence application, phytotoxicity in maize
Assay type: in vivo
Details: for Phytotoxicity (%): post-emergence, maize, 24 DAA
Method: A glass house test was carried out to determine the safening effect of numerous safeners on a compound of Formula (I) with respect to maize. Various herbicidal compositions were applied post-emergence and the observed phytotoxicity in maize assessed 24 days after application (24DAA). A=2-chloro-5-[3,6-dihydro-3-methyl-2,6-dioxo-4-(trifluoromethyl)-1(2H)-pyrimidinyl]-4-fluoro-N-[[methyl(1-methylethyl)amino]sulfonyl]benzamide; B=1-[4-(N-2-methoxybenzoylsulfamoyl)phenyl]-3-methylurea.

[1] = safener 100 g/ha applied with herbicide A 100 g/ha
[2] = safener 250 g/ha applied with herbicide A 250 g/ha

| Structure (SMILES) | Phytotoxicity (%) (herbicide A 100 g/ha, no safener) | Phytotoxicity (%) (herbicide A 250 g/ha, no safener) | safening of the 3-phenyluracil herbicide A in maize (in vivo) | Phytotoxicity (%) [1] [%] | Phytotoxicity (%) [2] [%] |
| --- | --- | --- | --- | --- | --- |
| CC(C)N(C)S(=O)(=O)NC(=O)c1cc(-n2c(=O)cc(C(F)(F)F)n(C)c2=O)c(F)cc1Cl [A, 2-chloro-5-[3,6-dihydro-3-methyl-2,6-dioxo-4-(trifluoromethyl)-1(2H)-pyrimidinyl]-4-fluoro-N-[[methyl(1-methylethyl)amino]sulfonyl]benzamide] | 25 | 35 |  |  |  |
| CNC(=O)Nc1ccc(S(=O)(=O)NC(=O)c2ccccc2OC)cc1 [B, 1-[4-(N-2-methoxybenzoylsulfamoyl)phenyl]-3-methylurea] |  |  | surprisingly good safening |  |  |
| O=C(O)COc1ccc(Cl)c2cccnc12 [Cloquintocet] |  |  |  | 25 | 35 |
| O=C(O)C1=NOC(c2ccccc2)(c2ccccc2)C1 [Isoxadifen] |  |  |  | 28 | 30 |
| CC1(C(=O)O)CC(C(=O)O)=NN1c1ccc(Cl)cc1Cl (stereo not drawn) [Mefenpyr] |  |  |  | 30 | 40 |
